Results on 13 molecules are retold here after patent US5696263A, “Antiviral acyclic phosphonomethoxyalkylsubstituted alkenyl and alkynyl purine and pyrimidine derivatives” (Institute of Organic Chemistry and Biochemistry of the …, priority 1994, dated 1997).

The test system of series [1] is human immunodeficiency virus LA BRU strain. Briefly: XTT assay, anti-HIV activity with LAV BRU strain. The series is classed as cell-based. Conditions: HIV LAV BRU strain (footnote e), read-out: ED50 (the source's name). The protocol:
(§1) Compounds were evaluated for activity against human immunodeficiency virus (HIV RF strain obtained from Luc Montagnier, Institut Pasteur, Paris, France) in CEM-SS cells (P. L. Nara, et al., in AIDS Res. Human. Retroviruses, 1987, 3, 283-302) using the XTT assay described by O. S. Weislow, et al., in J. Natl. Cancer Instit., 1989, 81, 577-586. CEM-SS cells were obtained from Owen Weislow at the National Cancer Institute. Cells were exposed to HIV and cultured in microtiter plates in the presence of test compounds at concentrations of 0.32, 1, 3.16, 10, 31.6, 100, 316 and 1000 um. On day six post-infection, the antiviral effect was measured using the XTT assay in which an optical density (OD) reading is obtained at each drug concentration. The optical density reading is proportional to the number of viable cells. The relative optical density values were derived by dividing the sample observed optical density by the value obtained for the control. Assays run in infected cells show the antiviral effect of the test compounds, where an increase in the number of viable cells (higher OD reading) reflects the protective, antiviral activity of the compound. Assays run in uninfected cells provide a measure of cellular toxicity.
(§2) The antiviral effect is also expressed (see Table 1) as the concentration of compound which increases the number of viable cells in infected cultures to 50%, to that of the untreated, uninfected control cultures (ED50). The cellular toxicity is expressed as the concentration of compound which reduces the number of viable cells to 50%, to that of the untreated control (TD50). The selectivity index (SI) is the ratio of TD50 to ED50.
(§3) ^a Effective Dose 50: In infected cells, concentration of compound
(§4) which results in an increase in the number of viable cells to 50% to that
^e The compounds were evaluated using human immunodeficiency virus LA
BRU strain obtained from Luc Montagnier, Institut Pasteur, Paris, France.
A general note: Tetrazolium assays rely on reduction of a dye to a coloured formazan, in cell work by metabolically active cells.

The test system of series [2] is CEM-SS cells. The series is described as follows: XTT assay, cellular toxicity in uninfected CEM-SS cells. The series is classed as cell-based. Conditions: compounds evaluated with HIV LAV BRU strain (footnote e), 8640 min, read-out: TD50 (the source's name).
Another series concerns Moloney sarcoma virus. Conditions: experimental animals; cited from earlier work.
The next series relates to murine leukemia virus. To be noted: experimental animals; cited from earlier work.
Series [3] relates to simian immunodeficiency virus (SIV). To be noted: experimental animals; cited from earlier work.
A further series deals with HIV. To be noted: in tissue cultures; cited from earlier work.
Series [4] in a line: XTT assay, cellular toxicity in uninfected CEM-SS cells. The series is classed as cell-based. To be noted: human, cem-ss cells. The protocol: as §1, §2
(§5) The anti-HIV activity and cellular toxicity of the test compounds are plotted in FIGS. 1-7 as a function of relative optical density versus increasing log concentrations of the test compounds (XTT assay). FIGS. 1-7 visually show the results of the relative anti-HIV activity of the test compounds on infected cells (--.circle-solid.--) and the cellular toxicity of the same test compound on uninfected cells (--.rect-solid.--).
(§6) ^b Toxic Dose 50: In uninfected cells, concentration of compound whic
(§7) results in a 50% decrease of viable cells.

The test system of series [5] is human immunodeficiency virus (HIV RF strain) in CEM-SS cells. Briefly: XTT assay, anti-HIV RF activity in infected CEM-SS cells, six days post infection. To be noted: for SI (Selectivity Index: Ratio of TD50 to ED50): HIV RF; for SI (Selectivity Index: Ratio of TD50 to ED50) / pEC50: CEM-SS cells; for pEC50: Human immunodeficiency virus 1, CEM-SS, 144 h, HIV RF strain, XTT assay, six days post infection, read-out: ED50 (the source's name); for anti-HIV potency and selectivity as compared to the other compounds: data in Table 1; for cell protection against HIV: over a broad concentration range. The series is classed as cell-based. As to the method: as §1, §2, §5
Another estimate of the effectiveness of a compound for use against HIV in the prevention and/or treatment of AIDS is a selectivity index (an in vitro "therapeutic index"), the ratio of the toxic dose 50 to the effective dose 50. The selectivity index (SI) for (RS), (R)- and (S)-2'-vinyl-PMEG and (RS), (R), (S), -2'-azidomethyl-PMEG of the instant invention and for the comparison compound PMEG are shown in Table 1.
Anti-HIV RF Activity in CEM-Cells Evaluated by XTT Assay
Six Days Post Infection
as §3, §4
^c Selectivity Index: Ratio of TD50 to ED50.

The subject of series [6] is CEM-SS cells. Briefly: XTT assay, cellular toxicity in uninfected CEM-SS cells. The series is classed as cell-based. The protocol:
as §1, §2, §5, §6, §7

The nature of series [7]: cell growth inhibition assay in CEM-SS cells. The series is classed as cell-based. To be noted: human, cem-ss cells; 50 percent decrease in cell count vs control at day three (72 hours). As to the method: (§8) The cytotoxicity of PMEG, (R)2'-vinyl-PMEG, (S)-2'-vinyl-PMEG and (R)-2'-azidomethyl-PMEG was also determined by the cell growth inhibition assay in CEM-SS cells.
(§9) *CC50 is the concentration of drug that causes a 50 percent decrease in
(§10) cell count as compared to the control at day three (72 hours).
(§11) 1. Choose proper range of the concentrations of the drug to be evaluated.
(§12) 2. Prepare the stock solutions of drugs in RPMI 1640 medium at 10× of the highest concentration needed in cell culture
(§13) 3. Make serial dilution of the 10× stock solutions with RPMI 1640 as needed, usually four different concentrations are used for each drug.
(§14) 4. Prepare CEM cell suspension at @5×10^4 cells/ml concentration
(§15) 5. To each 18 ml CEM cell suspension add 2 ml of properly diluted drug solution (from step 2 and 3) separately and mix well.
(§16) 6. For cell control, 2 ml of RPMI 1640 is added in place of the drug solutions.
(§17) 7. Two ml of the solutions from step 5 and 6 are dispensed in to the wells of 24-well plate as shown in the following diagram [drawing 14] 8. At time zero, cells in 4 wells from the control (no drug added) are counted
(§18) 9. At 24, 48, 72 and 96 hr post drug addition, both drug treated and control cells are counted
(§19) 10. All assay are done in duplicate, two 24-well plates are set up for each drug
(§20) 11. Cell counts obtained from drug treated cultures are compared to those from control cultures.
(§21) 12. The concentration of drug that causes a 50 percent of decrease of cell number as compared to the control at day three (72 hr) is assigned as the CC50 value of the drug.

Series [8] concerns CEM-SS cells. The series is described as follows: cell growth inhibition assay in CEM-SS cells. The series is classed as cell-based. Conditions: values of Table 2. The protocol:
as §8, §9, §10, §11, §12, §13, §14, §15, §16, §17, §18, §19, §20, §21

The test system of series [9] is human immunodeficiency virus HTLVIIIB strain and MT2 cells. The series is described as follows: anti-HIV activity, HTLVIIIB strain in MT2 cells (Southern Research Institute). Conditions: Southern Research Institute (footnote g), read-out: ED50 (the source's name). The series is classed as cell-based. As to the method:
as §3, §4
(§22) ^g The compound was evaluated by Southern Research Institute using
(§23) human immunodeficiency virus HTLVIIIB strain and MT2 cells (S. Harada, et

The next series deals with MT2 cells. Briefly: cellular toxicity in uninfected MT2 cells (Southern Research Institute). The series is classed as cell-based. To be noted: Southern Research Institute (footnote g), read-out: TD50 (the source's name). As to the method:
as §6, §7, §22, §23

pEC50: −log10 of the molar value. Like-named read-outs stand apart in the source and are kept apart here.

`[N-]=[N+]=NC[C@H](Cn1ccc(N)nc1=O)OCP(=O)(O)O` [(S)-2'-azidomethyl-PMEC, (S)-9-[3-azido-2-(phosphonomethoxy)propyl]cytosine]: in series [1] (8640 min), the pEC50 was less than 3.30. The CC50 in the series with CEM-SS cells [2] is greater than 500 µM.
Take `Nc1ncnc2c1ncn2CCOCP(=O)(O)O` [PMEA]: the “effect on Moloney sarcoma virus” value in the series on Moloney sarcoma virus is “proven its effect”. Besides, in the series on murine leukemia virus, the “effect on murine leukemia virus” value is recorded as “proven its effect”. Moreover, the “effect on simian immunodeficiency virus (SIV)” value in series [3] is “proven its effect”. Besides, the “effect on HIV” value with HIV is “proven its effect”.
Regarding `[N-]=[N+]=NCC[C@@H](Cn1cnc2c(O)nc(N)nc21)OCP(=O)(O)O` [(S)-2'-azidoethyl-PMEG, (S)-9-[4-azido-2-(phosphonomethoxy)butyl]guanine], the CC50 at 144 h in series [4] was greater than 500 µM. In addition, in [1] (Human immunodeficiency virus 1, CEM-SS, 144 h), the pEC50 is less than 3.30.
In the case of `Nc1nc2c(ncn2CCOCP(=O)(O)O)c(=O)[nH]1` [PMEG, 9-[2-(phosphonomethoxy)ethyl]guanine, reference compound], the “anti-HIV effect in CEM-SS cells” value in [5] (FIG. 7) was “some anti-HIV effect”. Also, in series [5], the “SI (Selectivity Index: Ratio of TD50 to ED50)” value amounted to 30 and the pEC50 is 6.70. The CC50 at 144 h in series [4] was 15 µM. For the same molecule, the cellular toxicity entry in the series with CEM-SS cells [6] was “cellular toxicity of PMEG prevents protection from the virus”. In [7], the CC50 at 72 h was determined as 2.4 µM.
With `[N-]=[N+]=NC[C@@H](Cn1cnc2c(O)nc(N)nc21)OCP(=O)(O)O` [(R)-2'-azidomethyl-PMEG, (R)-9-[3-azido-2-(phosphonomethoxy)propyl]guanine], in series [5], the “SI (Selectivity Index: Ratio of TD50 to ED50)” value is recorded as greater than 200; the pEC50 is 5.30; the “anti-HIV potency and selectivity as compared to the other compounds” value is “potent and selective anti-HIV agents”; the “cell protection against HIV” value is “cell protection against HIV over a broad concentration”. The CC50 at 144 h in series [4] was greater than 1000 µM. Further, the observable cytotoxicity entry with CEM-SS cells [6] is given as “no observable cytotoxicity”. The CC50 at 72 h in [7] was found to be 1400 µM. In addition, the “toxicity in CEM-SS cells when compared to PMEG” value (“toxicity … compared to PMEG” below) in the series on CEM-SS cells [8] was “relatively non-toxic”.
For the molecule `C=CC(Cn1cnc2c(=O)[nH]c(N)nc21)OCP(=O)(O)O` (racemic) [(R,S)-2'vinyl-PMEG, (RS)-9-[2-(phosphonomethoxy)-3-butenyl]guanine], in series [5], the “SI (Selectivity Index: Ratio of TD50 to ED50)” value is greater than 51 and the pEC50 was 4.71. In series [4], the CC50 at 144 h was greater than 1000 µM.
On to `[N-]=[N+]=NCC[C@@H](Cn1ccc(N)nc1=O)OCP(=O)(O)O` [(S)-2'-azidoethyl-PMEC, (S)-9-[4-azido-2-(phosphonomethoxy)butyl]cytosine], for which the pEC50 in series [1] (8640 min) was less than 3.30. Also, in the series on CEM-SS cells [2], the CC50 is greater than 500 µM.
In the same order, the values of `C=C[C@@H](Cn1ccc(N)nc1=O)OCP(=O)(O)O` [(S)-2'-vinyl-PMEC, (S)-9-[2-(phosphonomethoxy)-3-butenyl]cytosine] are less than 3.30 and greater than 500 µM.
With `C=C[C@H](Cn1cnc2c(O)nc(N)nc21)OCP(=O)(O)O` [(R)-2'-vinyl-PMEG, (R)-9-[2-(phosphonomethoxy)-3-butenyl]guanine], the “protection from the human immunodeficiency virus in CEM-SS cells” value in series [5] (concentration range of 5 to 100 μM, FIG. 1) is reported as “complete protection”. In addition, in [5], the “anti-HIV potency and selectivity as compared to the other compounds” value is “potent and selective anti-HIV agents”; the “cell protection against HIV” value is on record as “cell protection against HIV over a broad concentration”. The CC50 at 144 h in series [4] was greater than 1000 µM. In addition, the observable cytotoxicity entry in the series with CEM-SS cells [6] is on record as “no observable cytotoxicity”. In series [7], this molecule came in with a CC50 at 72 h of 1600 µM. Also, in the series on CEM-SS cells [8], the “toxicity … compared to PMEG” value was “relatively non-toxic”.
Regarding `C=C[C@@H](Cn1cnc2c(O)nc(N)nc21)OCP(=O)(O)O` [(S)-2'-vinyl-PMEG, (S)-9-[2-(phosphonomethoxy)-3-butenyl]guanine], in series [5] (at 100 μM, FIG. 2), the “protection from HIV in CEM-SS cells” value is given as “complete protection”. Moreover, in series [7], the CC50 at 72 h amounted to 1600 µM. In the series with CEM-SS cells [8], the “toxicity … compared to PMEG” value is “relatively non-toxic”.
As to `[N-]=[N+]=NCC(Cn1cnc2c(=O)[nH]c(N)nc21)OCP(=O)(O)O` (racemic) [(R,S)-2'-azidomethyl-PMEG, (RS)-9-[3-azido-2-(phosphonomethoxy)propyl]guanine], in series [5], the “SI (Selectivity Index: Ratio of TD50 to ED50)” value was greater than 125 and the pEC50 was 5.10. Besides, in [4], the CC50 at 144 h was greater than 1000 µM.
Consider `[N-]=[N+]=NC[C@H](Cn1cnc2c(=O)[nH]c(N)nc21)OCP(=O)(O)O` [(S)-2'-azidomethyl-PMEG, (S)-9-[3-azido-2-(phosphonomethoxy)propyl]guanine], for which, in series [5], the “SI (Selectivity Index: Ratio of TD50 to ED50)” value is greater than 20 and the pEC50 is 4.29. The molecule further gave a CC50 at 144 h in [4] greater than 1000 µM.
For the molecule `Cc1cn(C[C@@H](CN=[N+]=[N-])OCP(=O)(O)O)c(=O)[nH]c1=O` [(S)-2'-azidomethyl-PMET, (S)-9-[3-azido-2-(phosphonomethoxy)propyl]thymine], in series [9], the pEC50 is less than 3.30. In the series with MT2 cells, the CC50 was greater than 500 µM.
